“Also recorded” adds a separate entry of the source.
Assays:
[1] = target: T1, BuChE from equine serum (eqBuChE) (Equus caballus, UniProt P81908); experiment: biochemical; assay type: biochemical; details: for Enantioselectivity (eqBuChE): IC50(Xa:BuChE)/IC50(Xb,BuChE); for IC50: [S] = 112 µM, mean ± SD
T1 construct: BuChE from equine serum; from tissue; host or cells: equine serum
Source text: (§1) A Thermo Scintific^TM Varioskan^TM LUX microplate reader and Greiner F-bottom 96-well plates were used. Cornish-Bowden plots (1/V vs. [I] and [S]/V vs. [I]) were used for the visualisation of the mode of inhibition.
(§2) A minor modification of the Ellman assay was used in order to measure the IC50 values.

[2] = target: AChE from Electrophorus electricus (eeAChE) (Electrophorus electricus, UniProt O42275); experiment: biochemical; assay type: biochemical; details: for Enantioselectivity (eeAChE): IC50(Xa:AChE)/IC50(Xb:AChE); for IC50: [S] = 121 µM, mean ± SD; for fold more potent eeAChE inhibitor than 10a: IC50 ratio vs 10a
Source text: as §1, §2

[3] = system: A549 (non-small cell lung) cells; experiment: Antiproliferative SRB assay, A549; assay type: cell-based, human; details: 48 h exposure
Source text: (§3) For the antiproliferative tests, we applied our implementation of the National Cancer Institute (NCI) screening protocol. As a model of human solid tumour cells, we selected the cell lines A549 (non-small cell lung), HBL-100 (breast), HeLa (cervix), SW1573 (non-small cell lung), T-47D (breast), and WiDr (colon). Cell seeding densities, based on the cell line doubling time, were 2500 (A549, HBL-100, HeLa and SW1573) or 5000 (T-47D and WiDr) cells/well. Compounds were initially dissolved in DMSO at 400 times the desired final maximum test concentration. […] Each compound was tested in triplicate at different dilutions ranging from 1 to 100 μM. Drug treatment began on day 1 after sowing. The drug incubation times were 48 h, after which the cells were precipitated with ice-cold TCA (50% w/v) and fixed for 60 min at 4 °C. Then the SRB test was performed. The optical density (OD) of each well was measured at 530 nm using a microplate absorbance reader (PowerWave XS, BioTek Instruments Inc.). Values were corrected for background OD of wells containing medium only[39].
(§4) Antiproliferative activity of our heterodimers was investigated for six cancer cell lines including A549, HBL-100, HeLa, SW1573, T-47D and WiDr.

HBL-100 (breast) cells = experiment: Antiproliferative SRB assay, HBL-100; assay type: cell-based; details: Homo sapiens, 48 h exposure
Source text: as §3, §4

[4] = system: SW1573 (non-small cell lung) cells; experiment: Antiproliferative SRB assay, SW1573; assay type: cell-based; details: Homo sapiens, 48 h exposure
Source text: as §3, §4

HeLa (cervix) cells = experiment: Antiproliferative SRB assay, HeLa; assay type: cell-based; details: Homo sapiens, 48 h exposure
Source text: as §3, §4

WiDr (colon) cells = experiment: Antiproliferative SRB assay, WiDr; assay type: cell-based; details: Homo sapiens, 48 h exposure
Source text: as §3, §4

T-47D (breast) cells = experiment: Antiproliferative SRB assay, T-47D; assay type: cell-based; details: Homo sapiens, T47D, 48 h exposure
Source text: as §3, §4

[5] = system: A549, HBL-100, HeLa, SW1573, T-47D and WiDr cells; experiment: Antiproliferative SRB assay, panel of six cancer cell lines; assay type: cell-based; details: Homo sapiens, 48 h exposure, whole panel, read-out: GI50 against panel of six human cancer cell lines
Source text: as §3, §4

AChE = details: cited from earlier work; for inhibition of AChE: 20 μM inhibitor concentration

AChE from Electrophorus electricus (eeAChE), sequence (O42275 24-633): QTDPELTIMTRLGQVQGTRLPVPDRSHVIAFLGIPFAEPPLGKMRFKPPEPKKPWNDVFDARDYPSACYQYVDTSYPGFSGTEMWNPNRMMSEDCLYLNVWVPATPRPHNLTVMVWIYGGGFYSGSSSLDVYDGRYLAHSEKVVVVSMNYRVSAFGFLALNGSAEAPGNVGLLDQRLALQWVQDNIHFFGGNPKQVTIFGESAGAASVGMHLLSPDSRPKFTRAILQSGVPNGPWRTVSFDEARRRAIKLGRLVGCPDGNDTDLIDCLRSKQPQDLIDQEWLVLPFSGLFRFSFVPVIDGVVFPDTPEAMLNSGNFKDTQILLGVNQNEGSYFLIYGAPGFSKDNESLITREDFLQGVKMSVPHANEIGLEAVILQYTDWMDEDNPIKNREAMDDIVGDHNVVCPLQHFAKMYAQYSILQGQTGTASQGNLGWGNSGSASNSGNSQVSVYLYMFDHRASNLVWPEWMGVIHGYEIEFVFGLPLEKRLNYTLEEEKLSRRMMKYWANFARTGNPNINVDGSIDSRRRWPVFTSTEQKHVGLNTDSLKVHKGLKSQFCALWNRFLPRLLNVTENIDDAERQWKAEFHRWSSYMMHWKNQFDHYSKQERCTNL
T1 sequence (P81908 whole entry): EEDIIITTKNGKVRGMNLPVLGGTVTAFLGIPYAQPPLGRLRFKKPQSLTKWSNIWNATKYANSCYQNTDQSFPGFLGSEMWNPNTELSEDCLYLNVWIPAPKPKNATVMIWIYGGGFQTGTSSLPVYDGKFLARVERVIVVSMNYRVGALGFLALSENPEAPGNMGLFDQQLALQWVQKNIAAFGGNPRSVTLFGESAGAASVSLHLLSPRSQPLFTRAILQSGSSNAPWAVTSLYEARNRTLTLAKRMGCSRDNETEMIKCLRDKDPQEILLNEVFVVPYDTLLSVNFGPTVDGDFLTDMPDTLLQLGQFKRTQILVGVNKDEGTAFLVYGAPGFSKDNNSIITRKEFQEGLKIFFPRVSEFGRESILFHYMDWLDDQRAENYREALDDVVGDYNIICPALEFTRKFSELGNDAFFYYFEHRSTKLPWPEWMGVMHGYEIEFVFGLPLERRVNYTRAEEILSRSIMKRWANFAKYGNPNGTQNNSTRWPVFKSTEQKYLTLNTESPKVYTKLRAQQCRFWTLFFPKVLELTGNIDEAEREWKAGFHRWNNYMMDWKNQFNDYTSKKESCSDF

In the case of OC[C@H]1[C@H](O)[C@@H](O)CN1Cc1cn(CCCCCCNc2c3c(nc4ccccc24)CCCC3)nn1 [Compound 11b], the “Mode of inhibition eqBuChE” value ([1]; Cornish-Bowden plots) is reported as “mixed; also recorded: (mixed)”, the “Enantioselectivity (eqBuChE)” value [1] is reported as 1.1 and the “fold stronger eqBuChE inhibitor than 9b” value ([1]; IC50 ratio vs 9b) is reported as 22 fold. The “fold stronger eqBuChE inhibitor than 10b” value ([1]; IC50 ratio vs 10b) was 29 fold, the IC50 [1] was 8.1 ± 0.1 nM and the Ki ([1]; mixed inhibition, Cornish-Bowden, read-out: Ki (competitive inhibition constant) eqBuChE) was 10 nM. For the same compound, the “Mode of inhibition eeAChE” value ([2]; Cornish-Bowden plots) was “mixed; also recorded: (mixed)”, the “Enantioselectivity (eeAChE)” value [2] was 0.91 and the “fold more potent eeAChE inhibitor than 9b” value ([2]; IC50 ratio vs 9b) was “ca. 138 fold”. The “fold more potent eeAChE inhibitor than 10b” value ([2]; IC50 ratio vs 10b) was roughly 14 fold, the IC50 [2] was 10.7 ± 0.3 nM and the Ki ([2]; mixed inhibition, Cornish-Bowden, read-out: Ki (competitive inhibition constant) eeAChE) was 19 nM. It also gave a GI50 [3] of 84000 ± 28000 nM, a GI50 ([3]; Homo sapiens, A549, 48 h) of less than 100000 nM and a GI50 (HBL-100 (breast) cells) greater than 100000 nM. The GI50 [4] was 97000 ± 5400 nM, the GI50 (HeLa (cervix) cells) was greater than 100000 nM and the GI50 (WiDr (colon) cells) was greater than 100000 nM. It also gave a GI50 (T-47D (breast) cells) greater than 100000 nM.

For OC[C@@H]1[C@@H](O)[C@H](O)CN1Cc1cn(CCCNc2c3c(nc4ccccc24)CCCC3)nn1 [Compound 10a], the IC50 [1] was 184 ± 16 nM, the “fold less potent eeAChE inhibitor than 10b” value ([2]; IC50 ratio vs 10b, less potent) was “ca. 3.5 fold” and the IC50 [2] was 530 ± 30 nM. It also gave a GI50 [5] greater than 100000 nM.

In the case of CNC(=O)Oc1ccc2c(c1)[C@]1(C)CCN(C)[C@@H]1N2C [(-)-physostigmine (3a), (-)-physostigmine], the “fold stronger AChE inhibitor than (+)-physostigmine (3b)” value (AChE; depending on the enzyme source) is given as 25- to 1000 fold.

With OC[C@H]1[C@H](O)[C@@H](O)CN1Cc1cn(CCNc2c3c(nc4ccccc24)CCCC3)nn1 [Compound 9b] the “Enantioselectivity (eqBuChE)” value [1] was 0.54, the IC50 [1] was 179 ± 25 nM and the “Enantioselectivity (eeAChE)” value [2] was 0.28. The IC50 [2] was 1480 ± 240 nM and the GI50 [5] was greater than 100000 nM.

OC[C@@H]1[C@@H](O)[C@H](O)CN1Cc1cn(CCNc2c3c(nc4ccccc24)CCCC3)nn1 [Compound 9a] showed an IC50 [1] of 96 ± 5 nM, an IC50 [2] of 420 ± 10 nM and a GI50 [5] greater than 100000 nM.

In the case of OCC1C(O)C(O)CN1Cc1cn(CCCCCCNc2c3c(nc4ccccc24)CCCC3)nn1 (centres unmarked) [Compound 11a], the “fold stronger eqBuChE inhibitor than 9a” value ([1]; IC50 ratio vs 9a) is reported as “roughly 11 fold”, the “fold stronger eqBuChE inhibitor than 10a” value ([1]; IC50 ratio vs 10a) is reported as 20 fold and the IC50 [1] is reported as 9.1 ± 0.3 nM. The “fold more potent eeAChE inhibitor than 9a” value ([2]; IC50 ratio vs 9a) was “ca. 43 fold”, the “fold more potent eeAChE inhibitor than 10a” value [2] was 55 fold and the IC50 [2] was 9.7 ± 1 nM. It also gave a GI50 [3] of 94000 ± 9600 nM, a GI50 ([3]; Homo sapiens, A549, 48 h) of less than 100000 nM and a GI50 (HBL-100 (breast) cells) greater than 100000 nM. The GI50 [4] was greater than 100000 nM, the GI50 (HeLa (cervix) cells) was 93000 ± 12000 nM and the GI50 (WiDr (colon) cells) was greater than 100000 nM. For the same compound, the GI50 (T-47D (breast) cells) was greater than 100000 nM.

For COc1ccc2c3c1O[C@H]1C[C@@H](O)C=C[C@@]31CCN(C)C2 [(-)-Galantamine (2a), (-)-Galantamine], the “inhibition of AChE” value (AChE) is given as “ca. 94%”.

With OC[C@H]1[C@H](O)[C@@H](O)CN1Cc1cn(CCCNc2c3c(nc4ccccc24)CCCC3)nn1 [Compound 10b] the “Enantioselectivity (eqBuChE)” value [1] was 0.79, the IC50 [1] was 232 ± 28 nM and the “Enantioselectivity (eeAChE)” value [2] was 3.5. For the same compound, the “fold more potent eeAChE inhibitor than 10a” value [2] was “ca. 4 fold”, the IC50 [2] was 150 ± 38 nM and the GI50 [5] was greater than 100000 nM.

For COc1ccc2c3c1O[C@@H]1C[C@H](O)C=C[C@]31CCN(C)C2 [Compound 2b], the “inhibition of AChE” value (AChE) is given as “ca. 4%”.
